Data on eleven molecules can be found in patent US11767323B2, “Tricyclic pyridone compounds as JAK2 V617F inhibitors” (Incyte Corporation, priority 2020, dated 2023).

Test [1] has as its target catalytic domain (JH1, amino acids 826-1132) of human JAK2 (Homo sapiens (Human), UniProt O60674). In words: JAK2 LanthaScreen JH1 Binding Assay. The note with it: JAK2 JH1 1.5 nM, 50 nM tracer, 2 hours at 25° C.; read-out: JH1 BIND IC50. How it is done:
Example A. JAK2 LanthaScreen JH1 Binding Assay
JAK2 JH1 binding assay utilizes catalytic domain (JH1, amino acids 826-1132) of human JAK2 expressed as N-terminal FLAG-tagged, biotinylated protein in a baculovirus expression system (Carna Biosciences, Product #08-445-20N). The assay was conducted in black 384-well polystyrene plates in a final reaction volume of 20 μL. JAK2 JH1 (1.5 nM) was incubated with compounds (100 nL serially diluted in DMSO) in the presence of 50 nM Fluorescent JAK2-JH1 Tracer and 0.5 nM Streptavidin-Tb cryptate (Cisbio Part #610SATLB) in assay buffer (50 mM Tris, pH=7.5, 10 mM MgCl2, 0.01% Brij-35, 0.1% BSA, 1 mM EGTA, 5% Glycerol and 5 mM DTT). Non-specific binding was accessed in the presence of 2 mM ATP. After incubation for 2 hours at 25° C., LanthaScreen signals were read on a PHERAstar FS plate reader (BMG LABTECH). Data was analyzed with IDBS XLfit and GraphPad Prism 5.0 software using a four parameter dose response curve to determine IC50 for each compound.
For orientation: TR-FRET usually uses a lanthanide donor and a delayed reading to cut background.

Test [2] deals with catalytic domain (JH1, amino acids 808-1132) of human JAK2 (Homo sapiens (Human), UniProt O60674). In words: JAK2 HTRF Enzyme Activity Assay. Type of test: biochemical. The note with it: JAK2 0.015 nM, ATP (30 μM or 1 mM), 60 minutes at 25° C. How it is done:
Example D. JAK2 HTRF Enzyme Activity Assay
JAK2 enzyme activity assays utilize catalytic domain (JH1, amino acids 808-1132) of human JAK2 expressed as N-terminal His-tagged protein in a baculovirus expression system (BPS Bioscience, Catalog #40450). The assays was conducted in black 384-well polystyrene plates in a final reaction volume of 20 μL. JAK2 (0.015 nM) was incubated with compounds (100 nL serially diluted in DMSO) in the presence of ATP (30 μM or 1 mM) and 500 nM Biotin-labeled EQEDEPEGDYFEWLE (SEQ ID NO.: 1) peptide (BioSource International, custom synthesis) in assay buffer (50 mM Tris, pH=7.5, 10 mM MgCl2, 0.01% Brij-35, 0.1% BSA, 1 mM EGTA, 5% Glycerol and 5 mM DTT) for 60 minutes at 25° C. The reactions were stopped by the addition of 10 μL of detection buffer (50 mM Tris, pH 7.8, 0.5 mg/mL BSA, 150 mM NaCl), supplemented with EDTA, LANCE Eu-W1024 anti-phosphotyrosine (PY20), (PerkinElmer, Catalog #AD0067) and Streptavidin SureLight APC (PerkinElmer Catalog #CR130-100), for a final concentration of 15 mM, 1.5 nM and 75 nM, respectively. HTRF signals were read after 30 minutes incubation at room temperature on a PHERAstar FS plate reader (BMG LAB TECH). Data was analyzed with IDBS XLfit and GraphPad Prism 5.0 software using a four parameter dose response curve to determine IC50 for each compound.

For test [3], the target named is pseudo-kinase domain (JH2, amino-acids 536-812) of human V617F mutant JAK2 (Homo sapiens (Human), UniProt O60674, F794H/V617F/W659A/W777A). In words: JAK2 LanthaScreen JH2-V617F Binding Assay. The note with it: JAK2 JH2-V617F 0.26 nM, 50 nM tracer, 1 hour at 25° C.; read-out: JH2 BIND V617F IC50. How it is done: Example C. JAK2 LanthaScreen JH2-V617F Binding Assay
(§1) JAK2 JH2-V617F binding assay utilizes pseudo-kinase domain (JH2, amino-acids 536-812 with 3 surface mutations W659A, W777A, F794H) of human V617F mutant JAK2 expressed as C-terminal His-Avi-tagged, biotinylated protein in a baculovirus expression system (BPS Bioscience, Catalog #79498). The assay was conducted in black 384-well polystyrene plates in a final reaction volume of 20 μL. JAK2 JH2-V617F (0.26 nM) was incubated with compounds (100 nL serially diluted in DMSO) in the presence of 50 nM Fluorescent JAK2-JH2 Tracer (MedChem Express Catalog #HY-102055) and 0.25 nM Streptavidin-Tb cryptate (Cisbio Part #610SATLB) in assay buffer (50 mM Tris, pH=7.5, 10 mM MgCl2, 0.01% Brij-35, 0.1% BSA, 1 mM EGTA, 5% Glycerol and 5 mM DTT). Non-specific binding was accessed in the presence of 2 mM ATP. After incubation for 1 hour at 25° C., LanthaScreen signals were read on a PHERAstar FS plate reader (BMG LABTECH). Data was analyzed with IDBS XLfit and GraphPad Prism 5.0 software using a four parameter dose response curve to determine IC50 for each compound.

The target of test [4] is pseudo-kinase domain (JH2, amino-acids 536-812) of human Wild Type JAK2 (Homo sapiens (Human), UniProt O60674, F794H/W659A/W777A). In words: JAK2 LanthaScreen JH2-WT Binding Assay. Particulars: JAK2 JH2-WT 0.145 nM, 50 nM tracer, 1 hour at 25° C.; read-out: JH2 BIND WT IC50. How it is done:
Example B. JAK2 LanthaScreen JH2-WT Binding Assay
as §1, with “JH2-WT” for “JH2-V617F”, “Wild Type” for “V617F mutant”, “#79463).” for “#79498).”, “JH2-WT (0.145” for “JH2-V617F (0.26”, “LAB TECH).” for “LABTECH).”

Sequence of catalytic domain (JH1, amino acids 826-1132) of human JAK2 (O60674 826-1132): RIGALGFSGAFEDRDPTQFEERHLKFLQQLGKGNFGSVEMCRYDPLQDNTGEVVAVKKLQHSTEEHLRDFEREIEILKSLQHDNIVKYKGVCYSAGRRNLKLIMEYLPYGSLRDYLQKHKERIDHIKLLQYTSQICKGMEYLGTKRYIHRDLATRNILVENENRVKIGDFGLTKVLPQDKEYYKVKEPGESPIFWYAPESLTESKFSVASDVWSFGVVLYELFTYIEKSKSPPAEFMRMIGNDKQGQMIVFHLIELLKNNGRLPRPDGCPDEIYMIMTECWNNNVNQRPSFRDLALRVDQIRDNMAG
Sequence of pseudo-kinase domain (JH2, amino-acids 536-812) of human V617F mutant JAK2 (O60674 536-812 V617F/W659A/W777A/F794H): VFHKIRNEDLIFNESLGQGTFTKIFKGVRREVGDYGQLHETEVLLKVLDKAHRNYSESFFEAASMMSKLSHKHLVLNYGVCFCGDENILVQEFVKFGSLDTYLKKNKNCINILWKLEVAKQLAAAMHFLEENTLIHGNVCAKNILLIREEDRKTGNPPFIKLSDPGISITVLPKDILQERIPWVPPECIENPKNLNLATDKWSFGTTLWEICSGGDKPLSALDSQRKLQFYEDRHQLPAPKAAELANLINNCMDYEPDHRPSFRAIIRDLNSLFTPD
Sequence of catalytic domain (JH1, amino acids 808-1132) of human JAK2 (O60674 808-1132): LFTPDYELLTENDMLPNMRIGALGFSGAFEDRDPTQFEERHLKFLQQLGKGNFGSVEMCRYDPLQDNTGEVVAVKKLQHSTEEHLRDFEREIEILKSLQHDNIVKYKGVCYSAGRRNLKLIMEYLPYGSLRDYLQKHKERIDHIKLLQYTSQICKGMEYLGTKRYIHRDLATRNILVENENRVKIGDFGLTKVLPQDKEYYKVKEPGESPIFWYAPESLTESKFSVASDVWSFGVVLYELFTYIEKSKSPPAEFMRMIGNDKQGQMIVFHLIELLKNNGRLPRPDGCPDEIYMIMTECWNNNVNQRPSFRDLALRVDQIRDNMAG
Sequence of pseudo-kinase domain (JH2, amino-acids 536-812) of human Wild Type JAK2 (O60674 536-812 W659A/W777A/F794H): as the sequence (O60674 536-812 V617F/W659A/W777A/F794H) above, with F82V counted along it

The term IC50 denotes the concentration that gives 50% inhibition. Regarding `Cc1cc(-c2c(-c3ccccc3)c3c4cc(-c5cnn(C)c5)[nH]c4ncc3n(C)c2=O)on1` [Example 23, 6-methyl-2-(1-methyl-1H-pyrazol-4-yl)-8-(3-methylisoxazol-5-yl)-9-phenyl-3,6-dihydro-7H-pyrrolo[3,2-f][1,7]naphthyridin-7-one], the IC50 in test [1] was 100 to 500 nM; in test [2] it was 100 to 500 nM; in test [3], no more than 100 nM; in test [4] it was no more than 100 nM.
For the molecule `COC1CCC(c2cc(=O)n(C)c3cnc4[nH]c(-c5cnn(C)c5)cc4c23)CC1` (centres unmarked) [Example 24, 9-(4-methoxycyclohexyl)-6-methyl-2-(1-methyl-1H-pyrazol-4-yl)-3,6-dihydro-7H-pyrrolo[3,2-f][1,7]naphthyridin-7-one], the IC50 in test [1], in test [2], in test [3] and in test [4] was no more than 100 nM in each case.
`Cc1cc(-c2c(-c3ccc(C(=O)NCCO)cc3)c3c4cc(-c5cnn(C)c5)[nH]c4ncc3n(C)c2=O)on1` [Example 25, N-(2-hydroxyethyl)-4-(6-methyl-2-(1-methyl-1H-pyrazol-4-yl)-8-(3-methylisoxazol-5-yl)-7-oxo-6,7-dihydro-3H-pyrrolo[3,2-f][1,7]naphthyridin-9-yl)benzamide]: the IC50 in test [1] is 500 to 1000 nM; in test [2], 100 to 500 nM; in test [3] it was no more than 100 nM; in test [4], no more than 100 nM.
In the case of `Cc1cc(-c2c(-c3ccc(C(=O)Nc4ccc5oc(C)nc5c4)cc3)c3c4cc(-c5cnn(C)c5)[nH]c4ncc3n(C)c2=O)on1` [Example 26, 4-(6-Methyl-2-(1-methyl-1H-pyrazol-4-yl)-8-(3-methylisoxazol-5-yl)-7-oxo-6,7-dihydro-3H-pyrrolo[3,2-f][1,7]naphthyridin-9-yl)-A-(2-methylbenzo[d]oxazol-5-yl)benzamide], the IC50 is 100 to 500 nM in test [1], 100 to 500 nM in test [2], no more than 100 nM in test [3] and no more than 100 nM in test [4].
Regarding `COCc1ccc(-c2c(-c3cc(C)no3)c(=O)n(C)c3cnc4[nH]c(-c5cnn(C)c5)cc4c23)cc1` [Example 27, 9-(4-(Methoxymethyl)phenyl)-6-methyl-2-(1-methyl-1H-pyrazol-4-yl)-8-(3-methylisoxazol-5-yl)-3,6-dihydro-7H-pyrrolo[3,2-f][1,7]naphthyridin-7-one], the IC50 in test [1] is 100 to 500 nM; in test [2], 100 to 500 nM; in test [3], no more than 100 nM; in test [4] it was no more than 100 nM.
As for `Cc1cc(-c2c(-c3ccc(CNC4CCCOC4)cc3)c3c4cc(-c5cnn(C)c5)[nH]c4ncc3n(C)c2=O)on1` (centres unmarked) [Example 28, 6-Methyl-2-(1-methyl-1H-pyrazol-4-yl)-8-(3-methylisoxazol-5-yl)-9-(4-(((tetrahydro-2H-pyran-3-yl)amino)methyl)phenyl)-3,6-dihydro-7H-pyrrolo[3,2-f][1,7]naphthyridin-7-one], the IC50 in test [1] is 100 to 500 nM; in test [2], 100 to 500 nM; in test [3], no more than 100 nM; in test [4], no more than 100 nM.
For `COCCN(C)c1ccc(-c2c(-c3cc(C)no3)c(=O)n(C)c3cnc4[nH]c(-c5cnn(C)c5)cc4c23)cc1` [Example 29, 9-(4-((2-Methoxyethyl)(methyl)amino)phenyl)-6-methyl-2-(1-methyl-1H-pyrazol-4-yl)-8-(3-methylisoxazol-5-yl)-3,6-dihydro-7H-pyrrolo[3,2-f][1,7]naphthyridin-7-one], the IC50 in test [1] is 100 to 500 nM; in test [2], 100 to 500 nM; in test [3] it was no more than 100 nM; in test [4], no more than 100 nM.
As to `Cc1cc(-c2c(-c3ccc(NC4CCOCC4)cc3)c3c4cc(-c5cnn(C)c5)[nH]c4ncc3n(C)c2=O)on1` [Example 30, 6-Methyl-2-(1-methyl-1H-pyrazol-4-yl)-8-(3-methylisoxazol-5-yl)-9-(4-((tetrahydro-2H-pyran-4-yl)amino)phenyl)-3,6-dihydro-7H-pyrrolo[3,2-f][1,7]naphthyridin-7-one], the IC50 in test [1] is 500 to 1000 nM; in test [2] it was 500 to 1000 nM; in test [3], no more than 100 nM; in test [4], no more than 100 nM.
As for `Cc1cc(-c2c(-c3ccc(-c4cnn(C)c4C)cc3)c3c4cc(-c5cnn(C)c5)[nH]c4ncc3n(C)c2=O)on1` [Example 31, 9-(4-(1,5-Dimethyl-1H-pyrazol-4-yl)phenyl)-6-methyl-2-(1-methyl-1H-pyrazol-4-yl)-8-(3-methylisoxazol-5-yl)-3,6-dihydro-7H-pyrrolo[3,2-f][1,7]naphthyridin-7-one], the IC50 is 500 to 1000 nM in test [1], 500 to 1000 nM in test [2], no more than 100 nM in test [3] and no more than 100 nM in test [4].
For `Cc1cc(-c2c(-c3ccc(-c4cnn(C)c4CO)cc3)c3c4cc(-c5cnn(C)c5)[nH]c4ncc3n(C)c2=O)on1` [Example 32, 9-(4-(5-(Hydroxymethyl)-1-methyl-1H-pyrazol-4-yl)phenyl)-6-methyl-2-(1-methyl-1H-pyrazol-4-yl)-8-(3-methylisoxazol-5-yl)-3,6-dihydro-7H-pyrrolo[3,2-f][1,7]naphthyridin-7-one], the IC50 in test [1] was 100 to 500 nM; in test [2] it was 100 to 500 nM; in test [3] it was no more than 100 nM; in test [4], no more than 100 nM.
As to `Cc1cc(-c2c(C3CCN(S(C)(=O)=O)C3)c3c4cc(-c5cnn(C)c5)[nH]c4ncc3n(C)c2=O)on1` (centres unmarked) [Example 33, 6-Methyl-2-(1-methyl-1H-pyrazol-4-yl)-8-(3-methylisoxazol-5-yl)-9-(1-(methylsulfonyl)pyrrolidin-3-yl)-3,6-dihydro-7H-pyrrolo[3,2-f][1,7]naphthyridin-7-one], the IC50 in test [1] was 100 to 500 nM; in test [2], 100 to 500 nM; in test [3], no more than 100 nM; in test [4], no more than 100 nM.
